Measurements from patent US7427599B2, “Biologically active peptide comprising Tyrosyl-seryl-valine(YSV)” (CMS Peptides Patent Holding Company Limited, priority 2003, dated 2008).
Peptide text beside a SMILES is read from it.

Tests used:
[1] = system: Human cervical carcinoma Hela cells; experiment: Inhibition of growth of human cervical carcinoma Hela cells in vitro (MTT); format: cell-based; settings: for % inhibition / OD570 nm: 48 hours; for OD570 nm: MTT, negative control 0.24 ± 0.01
Method: Human cervical carcinoma Hela cells at logarithmic growth phase were detached by incubating for 2 to 3 minutes with PBS containing 0.05% trypsin and 0.02% EDTA. The cells were examined by inverted phase contrast microscopy. The supernatant was removed after cytoplasm pyknosis and dilatation of cell compartment were observed. A few milliliters of RPMI-1640 medium with 10% FBS were added to terminate the digestion. The cells were harvested by gently blowing with a pipette. The cells were collected by centrifugation at 150 g for 10 minutes, and washed twice by cold Hank's solution with re-suspension and centrifugation. The cell pellets were re-suspended in RPMI-1640 medium with 10% FBS and adjusted to density of 5×10^4/ml. The treated cells were placed onto a 96 wells cell culture plate, 100 μl/well. The cells were incubated for 24 hours at 37° C., 5% CO2 for re-activation and attachment.
The experiment included two testing groups with different concentrations of YSV in culture medium, and a negative control with culture medium only. The final concentrations of YSV were 10 μg/ml and 5 μg/ml. Each group contained five parallel wells. 100 μl/well testing solution was added to the treated cells. The cells were incubated for 48 hours at 37° C., 5% CO2.
The cells were pelleted by centrifugation at 150 g for 10 minutes. The supernatant was discarded and 100 μl/well MTT of 0.5 mg/ml in RPMI-1640 was added to the cell pellets and the cells were re-suspended by shaking for 2 minutes. Incubation was continued for 4 hours. The supernatant was discarded after centrifugation at 150 g for 10 minutes. After blotted dry by filter paper, 100 μl/well 40 mM HCl-2-propanol was added to the cell pellets and shaken for 3 minutes. OD570 nm of each well referenced at 630 nm was obtained by using ELISA reader.

[2] = system: Human liver cancer BEL7402 cells; experiment: Proliferation of cultured human liver cancer BEL7402 cells in vitro (MTT); format: cell-based; settings: for % inhibition / OD value: 48 hours; for OD value: MTT OD570nm, negative control 0.36 ± 0.01
Method: Human liver cancer BEL7402 cells at logarithmic growth phase were detached by incubating for 2 to 3 minutes with phosphate buffer saline pH7.4 (PBS) containing 0.05% trypsin and 0.02% EDTA. The cells were examined by inverted phase contrast microscopy. The supernatant was removed after cytoplasm pyknosis and dilatation of cell compartment were observed. A few milliliters of RPMI-1640 culture medium with 10% FBS was added to terminate the digestion. The cells were harvested by gently blowing with a pipette. The suspended cells were collected by centrifugation at 150 g for 10 minutes, and washed twice by cold D-Hank's solution with re-suspension and centrifugation. The washed cells were re-suspended in RPMI-1640 medium with 10% FBS and adjusted to density of 5×10^4/ml. The treated BEL7402 cells were placed onto a 96 wells cell culture plate, 100 μl/well. The cells were incubated for 24 hours at 37° C., 5% CO2 for re-activation and attachment.
The experiment included three testing groups with different concentrations of YSV and a negative control. The final concentrations of YSV in culture medium were 20 μg/ml, 10 μg/ml, and 5 μg/ml. The YSV solution was replaced by RPMI-1640 culture medium with 10% FBS in the negative control group. Each group contained five parallel wells. The cells were incubated for 48 hours at 37° C., 5% CO2.
The cells were then pelleted by centrifugation at 150 g for 10 minutes. After the supernatant was removed, 100 μl/well MTT of 0.5 mg/ml in RPMI-1640 was added to the cell pellets and the cells were re-suspended by shaking for 2 minutes. Incubation was continued for 4 hours. The supernatant was removed after centrifugation at 150 g for 10 minutes. After blotted dry by filter paper, 100 μl/well 40 mM HCl-2-propanol was added to the cell pellets and shaken for 3 minutes. OD570nm of each well referenced at 630 nm was obtained by using ELISA reader.

melanoma B16 = experiment: Growth of C57BL/6 mice-transplanted melanoma B16; format: in vivo; settings: for The Inhibition rate (%) / Tumor weight: 20 consecutive days; for Tumor weight: saline 2.64 ± 0.68
Method: B16 cells were maintained in RPMI-1640 medium with 10% FBS at 37° C., 5% CO2. Mouse B16 melanoma culture at log phase was adjusted to 2.5×10^6/ml with Hank's solution. 0.2 ml of this was subcutaneously injected to the right axilla of healthy C57 BL/6 mice to form the melanoma mice model. […] From the next day after the tumor implantation, the general conditions of the mice and the growth of the tumor were observed daily. On the next day after the last test substance administration, the tumors were extirpated and the weights of tumor were measured. […] The results were presented as arithmetic mean ±SD. Statistical analysis was performed using the ANOVA test of the SPSS software.

human leukemia K562 = experiment: Growth of nude mice-transplanted human leukemia K562; format: in vivo, nude mice (BALB/C (nu/nu))
Method: K-562 cells were maintained in RPMI-1640 medium with 10% FBS at 37° C., 5% CO2.
K562 cells at log phase were adjusted to 1.6×10^8/ml with RPMI-1640. 0.1 ml of this was subcutaneously injected to the right flank of the healthy nude mice to form the leukemia mice model.
The mice bearing human leukemia K562 cells were randomized into groups of: saline control (0.2 ml/day), and YSV (160 μg/kg/day). The test substance was dissolved in 0.2 ml saline and administration of the test substance by intraperitoneal injection was started on the next day after the K562 inoculation, once per day for 30 consecutive days.
The general conditions of the mice was examined daily and the tumor size was measured in every 3-4 days. Tumor volume (mm^3) V=(⅙)πXYZ where X, Y, and Z were the diameters of the tumor on the three planes.
On the next day after the last test substance administration, the tumors were excised, the weight of tumor was recorded and the tumor volume was measured. Tumor growth inhibition index (%)=(mean tumor weight of control group—mean tumor weight of treatment group)/mean tumor weight of control group×100)
All the data were shown as arithmetic mean ±SD. The data were analyzed using the ANOVA test of the SPSS software. P<0.05 was accepted as having statistical significance.

[3] = suitable dosage, p<0.05 vs saline

CC(C)[C@H](NC(=O)[C@H](CO)NC(=O)[C@@H](N)Cc1ccc(O)cc1)C(=O)O [YSV, L-Tyrosyl-L-seryl-L-valine] (H-Tyr-Ser-Val-OH)
inhibition of growth of Hela cells in vitro (conclusion) ([1]; 5 μg/ml to 10 μg/ml, p<0.05): able to inhibit the growth of human cervical carcinoma Hela cells in vitro | % inhibition ([1]; 5 μg/ml): 18.4% | OD570 nm ([1]; 5 μg/ml): 0.22 ± 0.00 | % inhibition ([1]; 10 μg/ml): 19.6% | OD570 nm ([1]; 10 μg/ml): 0.22 ± 0.01 | inhibition of growth of BEL7402 cells in vitro (conclusion) ([2]; 5 μg/ml to 20 μg/ml, p<0.05): able to inhibit the growth of human hepatocellular carcinoma BEL7402 cells in vitro | % inhibition ([2]; 5 μg/ml): 9.8% | OD value ([2]; 5 μg/ml): 0.31 ± 0.01 | % inhibition ([2]; 10 μg/ml): 38.0% | OD value ([2]; 10 μg/ml): 0.22 ± 0.01 | % inhibition ([2]; 20 μg/ml): 23.7% | OD value ([2]; 20 μg/ml): 0.27 ± 0.01 | The Inhibition rate (%) (melanoma B16; 320 μg/kg/day intraperitoneal): 39.6% | Tumor weight (melanoma B16; 320 μg/kg/day intraperitoneal): 1.60 ± 1.21 g | The Inhibition rate (%) (melanoma B16; 640 μg/kg/day intraperitoneal): 44.6% | Tumor weight (melanoma B16; 640 μg/kg/day intraperitoneal): 1.47 ± 0.92 g | inhibition of growth of B16 melanoma in C57BL/6 mice (conclusion) (melanoma B16; [3]): able to inhibit the growth of B16 melanoma in C57BL/6 mice | Inhibition index (%) (human leukemia K562; 160 μg/kg/day intraperitoneal, 30 consecutive days, from tumor weight vs saline): 37.9% | Tumor weight (human leukemia K562; 160 μg/kg/day intraperitoneal, 30 consecutive days, saline 4.75 ± 2.21): 2.95 ± 1.58 g | Tumor volume (cm3) (human leukemia K562; 160 μg/kg/day intraperitoneal, 30 consecutive days, saline 5.08 ± 2.15): 3.15 ± 1.74 cm3 | inhibition of growth of nude mice-transplanted K562 (conclusion) (human leukemia K562; [3]): able to inhibit the growth of nude mice-transplanted significantly human leukemia K562
